Measurements reported in patent publication US11219641B2 («NORMOPHARM» LIMITED LIABILITY COMPANY [RU/RU], priority 2017, dated 2022).
Like-named read-outs stand apart in the source and are kept apart here.

Columns and labels:
[1] = tested on: model of chronic alcohol intoxication; settings: treatment series
Experimental: (§1) Materials and Methods. White Wistar male rats weighing 200-250 g (n=168) were used as a model object. The investigation was approved by ethical committee of Federal State Budgetary Educational Institution of Higher Professional Education “Ivanovo State Medical Academy”, the Ministry of Health of the Russian Federation” on Mar. 15, 2016; all procedures and experiments on rats were conducted in compliance with the international rules of treating animals used for scientific purposes. Animals were housed in equal rooms in cages of 7 rats in each at 19-21° C. Animals were given 40-50 g of a mixed fodder per animal every day.
(§2) Creating a model of alcohol dependence.
(§3) Preparation dosage and application. […] Each group contained 21 animals.
(§4) Neurological testing. A general assessment of somatic and neurological status of animals was performed in all examined groups.
(§5) In the open field test (OFT), vertical activity, horizontal activity, frequency of dipping into the holes (a hole exploratory test or “burrow reflex”), grooming frequency, and frequency of central zone entries were registered. In OFT, an animal was placed in one and the same square located near the wall. An exposure time for each animal in the model was 5 min. A round OF represented an arena 1 m in diameter and a wall of 0.4 m height with the floor divided into sectors. Three zones were marked in the open field: central, intermediate (6 sectors), peripheral (12 sectors). Two 60 W lamps were located at a height of 1.5 m from the chamber floor over the central field segments. Horizontal activity in the central and peripheral zone, vertical activity, grooming frequency, frequency of defecation, burrow reflexes were fixed during the test. The walls and floor were treated with a wet and dry cloth after each animal.

[2] = tested on: model of chronic alcohol intoxication; settings: after 7 days, treatment series
Experimental: as §1, §2, §3, §4
The time spent in the open and closed arms and in the maze center, duration of grooming in the closed arm, a number of grooming episodes in the closed arm were registered during the elevated plus maze test (EPMT). The tested object was placed in the center of EPM with its nose towards the open arm. The time of testing the animals in the EPM amounted to 5 min. The apparatus used in the test consisted of two arms with an open area at the site of their crossing. One of the maze arms had closed compartments. The maze was installed at a height of 1 m from the floor. The time spent in the open and closed arm, grooming frequency, and rearing frequency were registered.

[3] = tested on: damaged neurocytes of the pyramidal layer of the forebrain cortex; test: Morphometric histological analysis of forebrain cortex neurocytes, prophylaxis series; format: in vivo, Wistar rats; settings: 5 mg/kg, prophylactic application; placebo group 34.8%
Experimental: as §2, §3
Histological analysis of the nervous tissue. The brain after craniotomy was wholly removed and fixed in a 10% solution of neutral formalin, in 24 hours a zone of precentral gyrus of the forebrain was exposed by frontal incisions. Preparation of nerve tissue specimens was performed according to a standard procedure (dehydration in ethyl alcohol, xylene) with subsequent fabrication of paraffin blocks. Histological sections of 6 μm thick made on a sliding Microm microtome were stained with hematoxylene and eosin. Section duplicates were Nissl-stained with a reagent kit (Biovitrum Co.) and impregnated with silver. Histological sections were morphometrically examined using BioVision image analyzer (Austria) for counting damaged neurocytes of the pyramidal layer of the forebrain cortex in 10 various fields of vision with subsequent statistical processing of the results. Microphotographs were obtained with the help of the research Micros microscope and DCM 900 digital ocular camera.

[4] = tested on: model of chronic alcohol intoxication; test: Neurological testing (OFT, EPMT), prophylaxis series; format: in vivo, Wistar rats
Experimental: as §2, §3, §4, §5
The time spent in the open and closed arms and in the maze center, duration of grooming in the closed arm, a number of grooming episodes in the closed arm were registered during the elevated plus maze test (EPMT). […]

[5] = tested on: model of chronic alcohol intoxication; settings: prophylaxis series
Description: as §2, §3

[6] = Wistar rats, literature (Ostrenko et al.); cited from earlier work
[7] = tested on: model of chronic alcohol intoxication; test: Observation of abstinence after alcohol withdrawal, treatment series; settings: after alcohol solution withdrawal, 5, 10, 30 mg/kg
Experimental: Creating a model of alcohol dependence. The criterion for selecting rats, along with the absence of obvious abnormalities in the state and behavior, was an initial preference for 6% ethyl alcohol over tap water. To determine this preference, a preliminary experiment was conducted during 3 days in the individual cages with a free access to both liquids. Once a selection has been done, 6% ethyl alcohol was offered as the only source of liquid, a week later the concentration of alcohol was increased to 15%. After 2 weeks, alcohol was replaced by tap water.
Preparation dosage and application. The experiment was carried out in two series «prophylaxis» and «treatment» with four groups in each series: (1) dose 30 mg/kg (experimental group 1), (2) dose 10 mg/kg (experimental group 2), (3) dose 5 mg/kg (experimental group 3), (4) placebo group. In the experiments of “prophylaxis” series, the preparation was introduced concurrently with model creation, while in the experiments of “treatment” series it was done after model creation. Each group contained 21 animals. Said preparation was introduced intragastrically via a probe once a day in volume of 0.5 ml per each animal for 14 days.
“Treatment” represents a more rigid model of alcohol intoxication for evaluation of the preparation efficacy.

[8] = 5 mg/kg intragastrically once a day, after 7 days
[9] = 10 mg/kg intragastrically once a day, after 7 days
[10] = 30 mg/kg intragastrically once a day, after 7 days
[11] = 5 mg/kg intragastrically once a day
[12] = 10 mg/kg intragastrically once a day
[13] = 30 mg/kg intragastrically once a day

O=C1O[C@H]([C@@H](O)CO)C([O-])=C1O.[Li+] [lithium ascorbate]
Frequency of dipping into the hole (OFT) [1, 8]: 1.1 times
Grooming frequency (OFT) [1, 8]: 8.9 times
Horizontal locomotor activity central (OFT) [1, 8]: 1.0
Horizontal locomotor activity peripheral (OFT) [1, 8]: 19.3
Number of boluses (OFT) [1, 8]: 15.1 pcs
Frequency of dipping into the hole (OFT) [1, 9]: 1.9 times
Horizontal locomotor activity central (OFT) [1, 9]: 1.8
Number of boluses (OFT) [1, 9]: 12.6 pcs
Vertical locomotor activity (OFT) [1, 9]: 1.4
Frequency of dipping into the hole (OFT) [1, 10]: 2.0 times
Horizontal locomotor activity central (OFT) [1, 10]: 1.9
Number of boluses (OFT) [1, 10]: 12.2 pcs
Vertical locomotor activity (OFT) [1, 10]: 1.6
dose at which adequate efficacy was noted, treatment purposes ([1]; doses 5, 10, 30 mg/kg compared): 5 mg/kg
Grooming frequency (EPMT) [2, 11]: 9.1 times
Time spent in the closed arm (EPMT) [2, 11]: 270.67 s
Time spent in the open arm (EPMT) [2, 11]: 27.73 s
Grooming frequency (EPMT) [2, 12]: 6.3 times
Time spent in the closed arm (EPMT) [2, 12]: 265.19 s
Time spent in the open arm (EPMT) [2, 12]: 34.81 s
Vertical activity (EPMT) [2, 12]: 1.5
Grooming frequency (EPMT) [2, 13]: 5.8 times
Time spent in the closed arm (EPMT) [2, 13]: 259.01 s
Time spent in the open arm (EPMT) [2, 13]: 38.26 s
amount of the damaged cortex cells [3]: 18.5%
dose from which effective prophylaxis of neurological disorders was noted ([4]; introduced with alcohol for 2 weeks): ≥ 5 mg/kg
vertical activity in neurological tests ([4]; various dosages during 2 weeks): increased vertical activity
catecholamine content in the animal blood ([5]; applied together with alcohol): inhibited the increase of catecholamine content
MDA levels in blood serum [5]: decreased MDA levels
toxicity class [6]: Class 5
cramps during abstinence [7]: No cramps were noted
number of aggressive incidents during abstinence [7]: reduced the number of aggressive incidents
